Data published in patent US10800726B2, “Rexinoid compounds and methods of using rexinoid compounds for treating metabolic disorders and cancer” (THE UAB RESEARCH FOUNDATION, priority 2014, dated 2020).

Legend:
[1] = tested on: estrogen-negative mammary cancers; test: DMBA-induced mammary carcinogenesis in transgenic erbB2+/− mice; type: in vivo; details: orally administered, female transgenic erbB2+/− mice, vs control mice, FIG. 1
Source text: FIG. 1 is a graph showing the efficacy of 9-cis-UAB30, TARGRETIN, Compound UAB125, and Compound UAB126 in preventing the formation of mammary cancers in ErbB2^+/− female mice. The first bar represents the controls for 9-cis-UAB30 and TARGRETIN. The fourth bar represents the controls for UAB125 and UAB126.
Mammary carcinogenesis was induced in female, transgenic erbB2^+/− mice using 7,12-Dimethylbenz[a]anthracene (DMBA). The mice were orally administered 9-cis-UAB30 (a tissue selective rexinoid), TARGRETIN® (Valeant Pharmaceuticals, West Laurel, Calif.) (i.e., bexarotene, which is a potent RXR agonist), UAB125, or UAB126. The control mice were not administered any compounds. […] Specifically, UAB125 and UAB126 prevented the formation of 68% and 79%, respectively, of the estrogen-negative mammary cancers, while 9-cis-UAB30 and TARGRETIN® prevented only 54% and 65%, respectively.

[2] = High fat diet-induced obesity: body weight, body composition (QMR), food intake; type: in vivo, C57BL/6J mice
Source text: (§1) Twelve C57BL/6J mice were randomly divided into two groups, namely high fat diet (HFD) (60% of calories from fat) fed with or without Compound UAB126 (1.5 g/kg food) for 10 weeks.
(§2) Also, fasting glucose levels in mice fed HFD with Compound UAB126 were lower than mice fed HFD (FIG. 5). […] Food intake was not different between the 2 groups.

[3] = Glucose tolerance, insulin sensitivity and fasting glucose in high fat diet fed mice; type: in vivo, C57BL/6J mice; details: HFD with compound
Source text: as §1, §2

[4] = Serum triglyceride, cholesterol and free fatty acids in high fat diet fed mice; type: in vivo, C57BL/6J mice
Source text: as §1
Previously developed rexinoids have the adverse side effect of elevating serum triglyceride (TG) level. […] Thus, Compound UAB126 can regulate lipid metabolism.

[5] = QMR, normalized by body weight, FIG. 6B
[6] = QMR, without normalization, FIG. 6A

Cc1ccc(-c2cccc(C=CC(=O)O)c2)c2ccccc12 (single isomer, unassigned) [UAB125, 3-(3-(4-methyl-1-naphthyl)phenyl)propenoic acid]
prevention of formation of estrogen-negative mammary cancers [1]: 68%

O=C(O)C=Cc1ccc(-c2cccc3ccccc23)cc1 (single isomer, unassigned) [UAB126, 3-(4-(1-naphthyl)phenyl)propenoic acid]
prevention of formation of estrogen-negative mammary cancers [1]: 79% | final body weight (avg.) ([2]; HFD (60% of calories from fat) with compound 1.5 g/kg food, 10 weeks, avg. initial 22.5 g, HFD alone: initial 23 g, final 40 g, FIG. 2): 27.8 g | body weight gain compared to HFD fed mice without compound ([2]; HFD with compound 1.5 g/kg food, 10 weeks, FIG. 2): gained less body weight | fat mass normalized by body weight, compared to HFD fed mice [2, 5]: less fat mass | lean mass normalized by body weight, compared to HFD fed mice [2, 5]: more lean mass | fat mass [2, 6]: markedly reduced | lean mass [2, 6]: slightly reduced | glucose tolerance vs mice fed HFD alone ([3]; FIG. 3): more glucose tolerant | insulin sensitivity vs mice fed HFD alone ([3]; FIG. 4): insulin sensitive | fasting glucose levels vs mice fed HFD ([3]; FIG. 5): lower | serum triglyceride levels ([4]; HFD with compound vs HFD, FIG. 7): significantly reduced | serum cholesterol ([4]; compared to HFD vehicle treated mice, FIG. 8A): significantly decreased | serum free fatty acids (FFA) ([4]; compared to HFD vehicle treated mice, FIG. 8B): significantly decreased

CC(=C/C=C/C(C)=C/C(=O)O)/C=C1\CCCc2ccccc21 [Compound 9-cis-UAB30, reference compound]
prevention of formation of estrogen-negative mammary cancers [1]: 54%

C=C(c1ccc(C(=O)O)cc1)c1cc2c(cc1C)C(C)(C)CCC2(C)C [TARGRETIN, bexarotene, reference compound]
prevention of formation of estrogen-negative mammary cancers [1]: 65%
